Source: patent publication US9187474B2, “Raf inhibitor compounds” (Deciphera Pharmaceuticals, LLC, priority 2012, dated 2015)
Counter-ions that a name gives are not always drawn.

Columns and labels:
[1] = system: phospho-ERK in A375 (B-Raf V600E) xenograft; assay: A375 mouse xenograft pharmacodynamic assay (tumor pERK by ELISA); format: in vivo, mice; conditions: 2 h post dose, vs vehicle, read-out: Measured pERK inhibition 2 h post dose; for inhibition in vivo at 20 mg/kg: A-375, 20 mg/kg oral
Experimental: To evaluate the in vivo pharmacodynamic (PD) effects of compounds of Formula I, an A375 (B-Raf V600E) xenograft model is employed. Briefly, 10×10^6 A375 tumor cells (ATCC) are prepared in a 1:1 matrigel mix (0.2 mL total volume) and implanted by subcutaneous injection in hind leg of nude female mice. A total of 4 mice each for each dosing group are employed. Treatment is initiated with oral administration (gavage) of test compound or vehicle (20% captisol, 25 mM phosphate, pH2.0) in 0.2 mL volume when average tumor size reaches approximately 300 mg. After a fixed time interval, the tumors are harvested and the phospho-ERK levels are measured by ELISA (Enzyme-linked immunosorbent assay). Treated groups are compared to the vehicle control group to calculate % inhibition.

[2] = system: phospho-ERK in HCT-116 cells; assay: HCT-116 cell pERK assay (AlphaScreen SureFire); format: cell-based; conditions: Homo sapiens; HCT-116 cells, B-Raf wild type, K-Ras mutation; 4 hours; read-out: IC50 reduction of phospho-ERK signal
Experimental: Examples of Formula I are tested against HCT-116 cells harboring wild type B-Raf and K-Ras mutation. The phospho-ERK activities are evaluated as described below.
HCT-116 cells (catalog #CCL-247) are obtained from the American Type Culture Collection (ATCC, Manassas, Va.). Briefly, cells are grown in McCoy's 5A supplemented with 10% characterized fetal bovine serum (Invitrogen, Carlsbad, Calif.), and 1% Penicillin/Streptomycin/L-Glutamine at 37 degrees Celsius, 5% CO2, and 95% humidity. Cells are allowed to expand until reaching 75-90% confluency at which point they are subcultured or harvested for assay use. HCT-116 cells suspended in complete media are added to 384-well tissue culture treated plates (3×10^5 cells/mL; 7,500 cells per well). The cells are incubated overnight at 37 degrees Celsius, 5% CO2, and 95% humidity. Next, test compound or DMSO diluted in complete media is added to the wells (0.25% final DMSO concentration). The plates are then incubated for 4 hours at 37 degrees Celsius, 5% CO2, and 95% humidity. Following compound incubation, the cells are lysed at 4° C. for 20 minutes with shaking Cell lysates are centrifuged and the supernatant is transferred to a new plate. An aliquot of each lysate is transferred to a white 384-well assay plate. Using the AlphaScreen SureFire pERK kit (Perkin-Elmer, Waltham, Mass.), an acceptor bead mixture is added to each well and incubated for 2 h at room temperature in the dark. A donor bead mixture is then added to each well and incubated for 2 h at room temperature in the dark. Plates are read using a Synergy2 plate reader (Biotek, Winooski, Vt.) in Plate Mode with Timing Control. Read: (F)1: excitation: 680/30 nm, emission: Plug. 2: Excitation: Plug, emission: 570/100 nm. Top mirror 635 nm. Data is analyzed using Prism software (Graphpad, San Diego, Calif.) to calculate IC50 values and Excel software (Microsoft, Redmond, Wash.) to calculate stimulation compared to control.

A375res cells [3] = assay: Proliferation assay in vemurafenib-resistant A375res melanoma cells; conditions: Homo sapiens, 72 h, read-out: absolute IC50 values
Excerpt: (§1) A vemurafenib-resistant cell line is generated by chronic treatment of the human melanoma cell line A375 (ATCC) harboring the B-Raf V600E mutation with increasing concentrations PLX4720.

A375res cells [4] = system: A375res cells
Excerpt: as §1

Row | Compound | IC50 [2] | IC50 (A375res cells [3]) | IC50 shift A375 to A375res (A375res cells [4]) | inhibition in vivo at 20 mg/kg [1] | inhibition in vivo at 6 mg/kg ([1]; A-375, 6 mg/kg oral)
1 | CNc1cc2nc(C)c(-c3cc(NC(=O)NCCC(C)(C)OC)c(F)cc3F)cc2cn1 [Example 24, 1-(2,4-difluoro-5-(2-methyl-7 (methylamino)-1,6-naphthyridin-3-yl)phenyl)-3-(3-methoxy-3-methylbutyl)urea hydrochloride] | 2 to 96 nM | 9 to 504 nM | – | 45% | –
2 | CNc1cc2nc(C)c(-c3cc(NC(=O)NCCC(C)(C)C)c(F)cc3C)cc2cn1 [Example 17, 1-(3,3-dimethylbutyl)-3-(2-fluoro-4-methyl-5-(2-methyl-7-(methylamino)-1,6-naphthyridin-3-yl)phenyl)urea] | – | 9 to 504 nM | 0.5-4.9 fold | 89% | –
3 | CNc1cc2nc(C)c(-c3cc(NC(=O)NC[C@@H](O)C(C)C)c(F)cc3C)cc2cn1 [Example 75, (S)-1-(2-fluoro-4-methyl-5-(2-methyl-7-(methylamino)-1,6-naphthyridin-3-yl)phenyl)-3-(2-hydroxy-3-methylbutyl)urea] | – | – | – | 89% | –
4 | CNc1cc2nc(C)c(-c3cc(NC(=O)NCCC(C)(C)C#N)c(F)cc3C)cc2cn1 [Example 9, 1-(3-cyano-3-methylbutyl)-3-(2-fluoro-4-methyl-5-(2-methyl-7-(methylamino)-1,6-naphthyridin-3-yl)phenyl)urea] | 2 to 96 nM | 9 to 504 nM | 0.5-4.9 fold | 78% | –
5 | CC(=O)Nc1cc2nc(C)c(-c3ccc(F)c(NC(=O)NCCC(C)(C)C)c3)cc2cn1 [Example 103, N-(3-(3-(3-(3,3-dimethylbutyl)ureido)-4-fluorophenyl)-2-methyl-1,6-naphthyridin-7-yl)acetamide] | – | – | – | 90% | –
6 | CNc1cc2nc(C)c(-c3cc(NC(=O)NC4CC(C)(C)C4)c(F)cc3F)cc2cn1 [Example 78, 1-(2,4-difluoro-5-(2-methyl-7-(methylamino)-1,6-naphthyridin-3-yl)phenyl)-3-(3,3-dimethylcyclobutyl)urea hydrochloride] | – | – | – | 68% | –
7 | CNc1cc2nc(C)c(-c3cc(NC(=O)NC4CCC(F)(F)CC4)c(F)cc3C)cc2cn1 [Example 12, 1-(4,4-difluorocyclohexyl)-3-(2-fluoro-4-methyl-5-(2-methyl-7-(methylamino)-1,6-naphthyridin-3-yl)phenyl)urea hydrochloride] | 2 to 96 nM | 9 to 504 nM | 0.5-4.9 fold | 58% | –
8 | CC(=O)Nc1cc2nc(C)c(-c3cc(NC(=O)NCCC(C)(C)C)c(F)cc3F)cc2cn1 [Example 105, N-(3-(5-(3-(3,3-dimethylbutyl)ureido)-2,4-difluorophenyl)-2-methyl-1,6-naphthyridin-7-yl)acetamide] | – | – | – | 87% | –
9 | CC(=O)Nc1cc2nc(C)c(-c3cc(NC(=O)NCCC(C)(C)C#N)c(F)cc3F)cc2cn1 [Example 43, N-(3-(5-(3-(3-cyano-3-methylbutyl)ureido)-2,4-difluorophenyl)-2-methyl-1,6-naphthyridin-7-yl)acetamide] | – | – | – | 55% | –

More lines, main results first:

Row | IC50 [2] | IC50 (A375res cells [3]) | IC50 shift A375 to A375res (A375res cells [4]) | Compound | inhibition in vivo at 20 mg/kg [1] | inhibition in vivo at 6 mg/kg ([1]; A-375, 6 mg/kg oral)
10 | 2 to 96 nM | – | – | CNc1cc2nc(C)c(-c3cc(NC(=O)NC[C@@H](O)C(C)(C)C)c(F)cc3C)cc2cn1 [Example 56, (S)-1-(2-fluoro-4-methyl-5-(2-methyl-7-(methylamino)-1,6-naphthyridin-3-yl)phenyl)-3-(2-hydroxy-3,3-dimethylbutyl)urea] | – | 75%
11 | 2 to 96 nM | 9 to 504 nM | 0.5-4.9 fold | CNc1cc2nc(C)c(-c3cc(NC(=O)NCCC(C)(C)OC)c(F)cc3C)cc2cn1 [Example 92, 1-(2-fluoro-4-methyl-5-(2-methyl-7-(methylamino)-1,6-naphthyridin-3-yl)phenyl)-3-(3-methoxy-3-methylbutyl)urea hydrochloride] | 77% | –
12 | 2 to 96 nM | – | – | Cc1cc(F)c(NC(=O)NCCC(C)(C)C)cc1-c1cc2cnc(NCCO)cc2nc1C [Example 64, 1-(3,3-dimethylbutyl)-3-(2-fluoro-5-(7-((2-hydroxyethyl)amino)-2-methyl-1,6-naphthyridin-3-yl)-4-methylphenyl)urea] | 79% | –
13 | 2 to 96 nM | 9 to 504 nM | 0.5-4.9 fold | Cc1nc2cc(NCCO)ncc2cc1-c1cc(NC(=O)NCCC(C)(C)C)c(F)cc1F [Example 47, 1-(2,4-difluoro-5-(7-(2-hydroxyethylamino)-2-methyl-1,6-naphthyridin-3-yl)phenyl)-3-(3,3-dimethylbutyl)urea] | 50% | –
14 | 2 to 96 nM | 9 to 504 nM | 0.5-4.9 fold | CNc1cc2nc(C)c(-c3cc(NC(=O)N[C@H]4C[C@](C)(F)C4)c(F)cc3C)cc2cn1 [Example 77, 1-(3-fluoro-cis(3-methylcyclobutyl))-3-(2-fluoro-4-methyl-5-(2-methyl-7-(methylamino)-1,6-naphthyridin-3-yl)phenyl)urea] | 96% | –
15 | 2 to 96 nM | 9 to 504 nM | 0.5-4.9 fold | CNc1cc2nc(C)c(-c3cc(NC(=O)NCC(O)C(C)(C)C)c(F)cc3C)cc2cn1 (stereo not shown) [Example 55, 1-(2-fluoro-4-methyl-5-(2-methyl-7-(methylamino)-1,6-naphthyridin-3-yl)phenyl)-3-(2-hydroxy-3,3-dimethylbutyl)urea] | – | –
16 | 2 to 96 nM | 9 to 504 nM | 0.5-4.9 fold | CNc1cc2nc(C)c(-c3cc(NC(=O)NC[C@H](O)C(C)(C)C)c(F)cc3C)cc2cn1 [Example 57, (R)-1-(2-fluoro-4-methyl-5-(2-methyl-7-(methylamino)-1,6-naphthyridin-3-yl)phenyl)-3-(2-hydroxy-3,3-dimethylbutyl)urea] | 96% | –
17 | 2 to 96 nM | 9 to 504 nM | 0.5-4.9 fold | CNc1cc2nc(C)c(-c3cc(NC(=O)NCCC(C)(C)C(F)(F)F)c(F)cc3C)cc2cn1 [Example 89, 1-(2-fluoro-4-methyl-5-(2-methyl-7-(methylamino)-1,6-naphthyridin-3-yl)phenyl)-3-(4,4,4-trifluoro-3,3-dimethylbutyl)urea hydrochloride] | 84% | –
18 | 2 to 96 nM | 9 to 504 nM | 0.5-4.9 fold | CNc1cc2nc(C)c(-c3cc(NC(=O)NC4CCC(F)(F)CC4)c(F)cc3F)cc2cn1 [Example 88, 1-(2,4-difluoro-5-(2-methyl-7-(methylamino)-1,6-naphthyridin-3-yl)phenyl)-3-(4,4-difluorocyclohexyl)urea hydrochloride] | – | –
19 | 2 to 96 nM | 9 to 504 nM | 0.5-4.9 fold | Cc1cc(F)c(NC(=O)NCCC2(C(F)(F)F)CC2)cc1-c1cc2cnc(N)cc2nc1C [Example 83, 1-(5-(7-amino-2-methyl-1,6-naphthyridin-3-yl)-2-fluoro-4-methylphenyl)-3-(2-(1-(trifluoromethyl)cyclopropyl)ethyl)urea hydrochloride] | – | –
